One experiment relates to BALB/cJ mice (H-2d). The experiment in a line: Immunization in mice followed by cytotoxicity (CTL) analysis, standard 4-h 51Cr release assay. It is filed as in vivo. On the procedure: FIG. 1. Specific CTL response of BALB/cJ(H-2^d) mice after immunized with 7-mer peptied and gp96-7 mer peptide complex seven days. The lysis percentage of effector cells to specific target cells was measurated in a standard 4-h ^51Cr release assay. The lysis percent rate of the figure is the mean percentage of 10 mice.
BALB/cJ mice (H-2^d) 12-16 weeks old were used in this studies.
Sample was solubilized in 100 μl PBS and was injected subcutaneously in the neck back area of each mouse.
Therefore, we adopted the immunological manner of subcutaneous injection. The 7-mer peptide was dissolved in buffer (90% PBS, 10% DMSO/0.1% TFA) and gp96-7 mer peptide complex was dissolved in PBS buffer and then shaked severely for 1 minute before injection. For each mouse, the immunization dosage of 7-mer peptide was 0.2 nmol, 2 nmol and 20 nmol, respectively, the mice were immunized with peptide and Freund's after emulsion. The immunization dosage of gp96-7 mer peptide complex was 0.01 nmol, 0.05 nmol, 0.10 nmol and 0.50 nmol, respectively, the mice were immunized with subcutaneous injection in neck back area, and the second enhanced immunization was performed after one week from the first immunization, then cytotoxicity analysis was performed after 7 days. Each treatment group consisted of 10 mice. […]

The target in experiment [1] is T1, gp96 protein purified from human liver tissues (human, UniProt P14625 22-803).
T1 construct: Native protein from tissue, over 95% purity; also called purified gp96 protein
Kind of experiment: non-covalently bound peptides eluted with TFA from gp96 purified from HBV-infected liver cancer tissues, HPLC peak, MALDI-TOF, microsequencing.

“Also recorded” adds a separate entry of the source.

T1 sequence (P14625 22-803 limits assumed): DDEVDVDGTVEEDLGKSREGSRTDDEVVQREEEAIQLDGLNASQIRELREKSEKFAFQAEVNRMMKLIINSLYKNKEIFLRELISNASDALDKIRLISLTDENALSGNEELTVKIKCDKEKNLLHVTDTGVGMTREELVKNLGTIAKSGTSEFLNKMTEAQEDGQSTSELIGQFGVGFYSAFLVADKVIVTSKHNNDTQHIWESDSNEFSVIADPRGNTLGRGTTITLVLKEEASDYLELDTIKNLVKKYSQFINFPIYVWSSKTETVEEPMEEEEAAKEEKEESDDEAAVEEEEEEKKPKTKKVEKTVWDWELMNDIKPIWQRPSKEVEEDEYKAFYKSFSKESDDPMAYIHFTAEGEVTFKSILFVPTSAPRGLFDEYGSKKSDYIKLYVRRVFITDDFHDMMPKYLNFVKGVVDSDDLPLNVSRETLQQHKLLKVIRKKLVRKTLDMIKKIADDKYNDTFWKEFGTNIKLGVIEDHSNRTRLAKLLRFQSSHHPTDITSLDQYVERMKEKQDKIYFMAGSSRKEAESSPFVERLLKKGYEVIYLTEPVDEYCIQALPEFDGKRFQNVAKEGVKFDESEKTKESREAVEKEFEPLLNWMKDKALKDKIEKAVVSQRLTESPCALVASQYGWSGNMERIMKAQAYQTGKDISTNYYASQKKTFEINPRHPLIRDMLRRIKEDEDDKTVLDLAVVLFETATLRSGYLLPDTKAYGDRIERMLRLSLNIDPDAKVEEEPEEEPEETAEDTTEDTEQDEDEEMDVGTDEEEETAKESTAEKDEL

“YVNTNMG [7-mer peptide, 7-mer peptide “YVNTNMG or YVNVNMG”, amino acid residues 88-94 of the core protein of HBV]”: the “effect of adjuvant on immunogenicity” value with BALB/cJ mice (H-2d) (Freund's incomplete adjuvant, Freund's complete adjuvant, chromium alum) is listed as “can improve the immunological activity of it significantly”. Besides, in the experiment on BALB/cJ mice (H-2d) (subcutaneous immunization, 51Cr release assay), the “specific cytotoxic T lymphocyte (CTL) response in mice after immunization” value is “can elicit the specific CTL response in mice; also recorded: can elicit the specific cytotoxic T lymphocytes in mice”.

Regarding YVNVNMG (Printed as the alternative to YVNTNMG) [7-mer peptide YVNVNMG (HBV core protein 88-94)], the binding result in experiment [1] is recorded as “binds”.

B1: 7-mer peptide YVNTNMG (HBV core protein 88-94) (peptide)
peptide: YVNTNMG
notes: Eluted from tissue gp96 and also synthesized
Regarding B1, in experiment [1], the binding result is given as “binds”.
